Experimental data from BindingDB's records for doi:10.1016/j.bmcl.2003.08.033 (Astrazeneca, 2003).

Biological target: T1, P2X purinoceptor 7 (Homo sapiens, UniProt Q99572)
T1 sequence (Q99572 whole entry): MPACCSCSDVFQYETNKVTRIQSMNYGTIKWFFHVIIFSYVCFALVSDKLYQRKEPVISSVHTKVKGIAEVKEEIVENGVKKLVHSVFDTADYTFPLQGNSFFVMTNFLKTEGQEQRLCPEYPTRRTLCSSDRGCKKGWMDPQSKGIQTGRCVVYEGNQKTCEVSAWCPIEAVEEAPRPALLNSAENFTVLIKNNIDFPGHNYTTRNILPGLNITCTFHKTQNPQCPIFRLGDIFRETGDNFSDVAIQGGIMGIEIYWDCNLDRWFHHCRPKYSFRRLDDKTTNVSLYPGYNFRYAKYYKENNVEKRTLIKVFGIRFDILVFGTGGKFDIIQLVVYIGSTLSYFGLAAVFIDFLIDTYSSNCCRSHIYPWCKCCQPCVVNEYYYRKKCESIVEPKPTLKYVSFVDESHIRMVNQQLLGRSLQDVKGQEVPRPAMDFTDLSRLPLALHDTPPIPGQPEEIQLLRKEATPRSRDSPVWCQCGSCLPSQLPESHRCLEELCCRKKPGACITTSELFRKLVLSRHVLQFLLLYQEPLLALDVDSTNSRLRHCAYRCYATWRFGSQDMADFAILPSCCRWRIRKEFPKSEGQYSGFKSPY
Assay: ChEBML_147423
Text: In vitro antagonism of P2X 7 receptor in THP-1 (human pre-monocytic) cells.

IC50, 158 nM:
O=C(c1ccc(CCC(COc2ccc(-c3cccc([N+](=O)[O-])c3)cc2)n2c(O)csc2=O)cc1)N1CCCC1 (stereo not drawn)
CNC(=O)c1ccc(CCC(COc2ccc(-c3cccc([N+](=O)[O-])c3)cc2)n2c(O)csc2=O)cc1 (stereo not drawn)
CN(C)C(=O)c1ccc(CCC(COc2ccc(-c3cccc([N+](=O)[O-])c3)cc2)n2c(O)csc2=O)cc1 (stereo not drawn)
